According to patent US11377464B2, “Galactoside inhibitor of galectins” (Galecto Biotech AB, priority 2015, dated 2022):

What was measured:
galectin-3 = galectin-3 (Homo sapiens (Human), UniProt P17931); assay: Fluorescence anisotropy assay: compound as inhibitor of the interaction between galectin and a fluorescein tagged saccharide probe; format: binding; settings: 50 nM galectin-3, 100 nM albumin for high affinity compounds
Experimental: 100 nM albumin was included as a carrier to prevent protein loss at such low concentration of galectin.

galectins = settings: cited from earlier work

galectin-3, sequence (P17931 whole entry): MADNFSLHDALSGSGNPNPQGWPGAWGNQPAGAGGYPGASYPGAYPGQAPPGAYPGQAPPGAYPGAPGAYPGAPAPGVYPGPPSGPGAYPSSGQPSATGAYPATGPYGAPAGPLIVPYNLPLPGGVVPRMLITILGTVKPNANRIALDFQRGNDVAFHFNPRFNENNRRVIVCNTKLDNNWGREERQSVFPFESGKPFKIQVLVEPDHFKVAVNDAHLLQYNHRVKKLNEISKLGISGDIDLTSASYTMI

| Kd (galectin-3) [nM] | Compound | affinity relative to lactose (galectins) |
| --- | --- | --- |
| 560 | O=C(NCC(F)(F)F)c1cn([C@@H]2C(O)[C@@H](Sc3ccc(Cl)c(Cl)c3)OC(CO)[C@@H]2O)nn1 (stereo in doubt) [Example 98] |  |
|  | O=C[C@H](O)[C@@H](O)[C@@H](O)[C@H](O)CO [D-galactose, D-(+)-galactose] | 50-100 times lower |
